The target in the test is Ras-related C3 botulinum toxin substrate 1 (Mus musculus, UniProt P63001). The test can be described thus: analog inhibition of wildtype Rac1 nucleotide binding – biochemical, oxadiazole analogs, multiplex bead flow cytometry, SAR follow-up (AID 2027). For orientation: A flow cytometer gives signals particle by particle.
Setting [1] is: inactive by the depositor's call.

`COc1cccc(-c2noc(CCC(=O)N3CCN(c4cc(C)ccc4C)CC3)n2)c1`: the EC50 was determined as 6120 nM.
On the same count and under the same terms, for `Cc1ccc(C)c(N2CCN(C(=O)CCc3nc(-c4ccccc4C)no3)CC2)c1` the value was 1730 nM; for `COc1ccc(-c2noc(CCC(=O)N3CCN(c4cccc(Cl)c4)CC3)n2)cc1`, above 30000 nM; for `Cc1ccc(C)c(N2CCN(C(=O)CCc3nc(-c4ccccc4C(F)(F)F)no3)CC2)c1`, 2110 nM.
`COc1ccc(-c2noc(CCC(=O)N3CCN(c4ccccc4C)CC3)n2)cc1` gave an EC50 of 1350 nM.
As to `COc1ccc(-c2ccc(CCC(=O)N3CCN(c4cc(C)ccc4C)CC3)s2)cc1`, the EC50 is above 30000 nM.
Same read-out and setting: next, `COc1ccc(-c2noc(CCC(=O)N3CCN(c4cccc(C)c4C)CC3)n2)cc1` [1-[4-(2,3-dimethylphenyl)-1-piperazinyl]-3-[3-(4-methoxyphenyl)-1,2,4-oxadiazol-5-yl]-1-propanone]: 1310 nM.
On the same count and under the same terms, next, `COc1ccc(-c2noc(CCC(=O)N3CCN(c4cc(C)ccc4C)CC3)n2)cc1` [1-[4-(2,5-dimethylphenyl)-1-piperazinyl]-3-[3-(4-methoxyphenyl)-1,2,4-oxadiazol-5-yl]-1-propanone]: 5080 nM; `Cc1ccc(-c2noc(CCC(=O)N3CCN(c4cc(C)ccc4C)CC3)n2)cc1` [1-[4-(2,5-dimethylphenyl)-1-piperazinyl]-3-[3-(4-methylphenyl)-1,2,4-oxadiazol-5-yl]-1-propanone]: 3200 nM; `Cc1ccc(C)c(N2CCN(C(=O)CCc3nc(-c4ccc(C(F)(F)F)cc4)no3)CC2)c1` [1-[4-(2,5-dimethylphenyl)-1-piperazinyl]-3-[3-[4-(trifluoromethyl)phenyl]-1,2,4-oxadiazol-5-yl]-1-propanone]: 2190 nM.
On the same count and under the same terms, for `COc1ccc(-c2noc(CCCCC(=O)N3CCN(c4cc(C)ccc4C)CC3)n2)cc1` [1-[4-(2,5-dimethylphenyl)-1-piperazinyl]-5-[3-(4-methoxyphenyl)-1,2,4-oxadiazol-5-yl]-1-pentanone] the value was 21000 nM.
On to `COc1ccc(-c2noc(CC(=O)N3CCN(c4cc(C)ccc4C)CC3)n2)cc1` [1-[4-(2,5-dimethylphenyl)piperazin-1-yl]-2-[3-(4-methoxyphenyl)-1,2,4-oxadiazol-5-yl]ethanone], for which the EC50 under setting [1] worked out at 7520 nM.
With `Cc1cccc(-c2noc(CCC(=O)N3CCN(c4cc(C)ccc4C)CC3)n2)c1` [1-[4-(2,5-dimethylphenyl)piperazin-1-yl]-3-[3-(3-methylphenyl)-1,2,4-oxadiazol-5-yl]propan-1-one], the EC50 was 1220 nM. In other words, the single-digit micromolar range.
Still for that read-out and setting: for `COc1ccc(-c2cc(CCC(=O)N3CCN(c4cc(C)ccc4C)CC3)on2)cc1` [1-[4-(2,5-dimethylphenyl)piperazin-1-yl]-3-[3-(4-methoxyphenyl)-1,2-oxazol-5-yl]propan-1-one] the value was above 30000 nM; for `COc1ccc(-c2coc(CCC(=O)N3CCN(c4cc(C)ccc4C)CC3)n2)cc1` [1-[4-(2,5-dimethylphenyl)piperazin-1-yl]-3-[4-(4-methoxyphenyl)-1,3-oxazol-2-yl]propan-1-one], 2200 nM; for `COc1ccc(-c2ccc(CCC(=O)N3CCN(c4cc(C)ccc4C)CC3)[nH]2)cc1` [1-[4-(2,5-dimethylphenyl)piperazin-1-yl]-3-[5-(4-methoxyphenyl)-1H-pyrrol-2-yl]propan-1-one], above 30000 nM.
On the same count and under the same terms, next, `COc1ccc(-c2noc(CCC(=O)N3CCN(c4ccccc4Cl)CC3)n2)cc1` [1-[4-(2-chlorophenyl)piperazin-1-yl]-3-[3-(4-methoxyphenyl)-1,2,4-oxadiazol-5-yl]propan-1-one]: 3340 nM; `COc1ccc(-c2noc(CCC(=O)N3CCN(c4ccccc4F)CC3)n2)cc1` [1-[4-(2-fluorophenyl)piperazin-1-yl]-3-[3-(4-methoxyphenyl)-1,2,4-oxadiazol-5-yl]propan-1-one]: 1110 nM.
The same measure, in the same setting: next, `COc1ccc(-c2noc(CCC(=O)N3CCN(c4cccc(Br)c4)CC3)n2)cc1` [1-[4-(3-bromophenyl)-1-piperazinyl]-3-[3-(4-methoxyphenyl)-1,2,4-oxadiazol-5-yl]-1-propanone]: above 30000 nM.
Regarding `COc1ccc(-c2noc(CCC(=O)N3CCN(c4cccc(F)c4)CC3)n2)cc1` [1-[4-(3-fluorophenyl)piperazin-1-yl]-3-[3-(4-methoxyphenyl)-1,2,4-oxadiazol-5-yl]propan-1-one], the EC50 is above 30000 nM.
`COc1ccc(-c2noc(CCC(=O)N3CCN(c4ccc(Br)cc4)CC3)n2)cc1` [1-[4-(4-bromophenyl)piperazin-1-yl]-3-[3-(4-methoxyphenyl)-1,2,4-oxadiazol-5-yl]propan-1-one] had an EC50 under setting [1] of 257 nM.
As to `COc1ccc(-c2noc(CCC(=O)N3CCN(c4cccc(C(F)(F)F)c4)CC3)n2)cc1` [1-{3-[3-(4-methoxyphenyl)-1,2,4-oxadiazol-5-yl]propanoyl}-4-[3-(trifluoromethyl)phenyl]piperazine], the EC50 was above 30000 nM.
Still for that read-out and setting: next, `Cc1ccc(C)c(N2CCN(C(=O)CCc3nc(-c4ccccc4Br)no3)CC2)c1` [3-[3-(2-bromophenyl)-1,2,4-oxadiazol-5-yl]-1-[4-(2,5-dimethylphenyl)-1-piperazinyl]-1-propanone]: 1710 nM; `Cc1ccc(C)c(N2CCN(C(=O)CCc3nc(-c4ccccc4Cl)no3)CC2)c1` [3-[3-(2-chlorophenyl)-1,2,4-oxadiazol-5-yl]-1-[4-(2,5-dimethylphenyl)-1-piperazinyl]-1-propanone]: 1190 nM.
The same measure, in the same setting: for `COc1ccc(-c2noc(CCC(=O)N3CCN(c4ccccc4)CC3)n2)cc1` [3-[3-(4-methoxyphenyl)-1,2,4-oxadiazol-5-yl]-1-(4-phenylpiperazin-1-yl)propan-1-one] the value was above 30000 nM.
`COc1ccc(-c2noc(CCC(=O)N3CCN(c4ccccc4OC)CC3)n2)cc1` [3-[3-(4-methoxyphenyl)-1,2,4-oxadiazol-5-yl]-1-[4-(2-methoxyphenyl)-1-piperazinyl]-1-propanone] registered an EC50 under setting [1] of 2290 nM.
Regarding `COc1ccc(-c2noc(CCC(=O)N3CCN(c4ccc(OC)cc4)CC3)n2)cc1` [3-[3-(4-methoxyphenyl)-1,2,4-oxadiazol-5-yl]-1-[4-(4-methoxyphenyl)piperazin-1-yl]propan-1-one], the midpoint of the response under setting [1], the EC50, lay at 527 nM.
`COc1ccc(-c2noc(CCC(=O)N3CCN(c4ccc(C)cc4)CC3)n2)cc1` [3-[3-(4-methoxyphenyl)-1,2,4-oxadiazol-5-yl]-1-[4-(4-methylphenyl)piperazin-1-yl]propan-1-one]: a half-maximal response under setting [1] (EC50) required 2690 nM.
The compound `COc1ccc(-c2noc(CCC(=O)N3CCN(c4ccc(C(F)(F)F)cc4)CC3)n2)cc1` [3-[3-(4-methoxyphenyl)-1,2,4-oxadiazol-5-yl]-1-[4-[4-(trifluoromethyl)phenyl]piperazin-1-yl]propan-1-one] displayed an EC50 above 30000 nM.
Turning to `COc1ccc(-c2noc(CCC(=O)N3CCN(c4cccc(OC)c4)CC3)n2)cc1` [KUC103349N], the concentration giving a half-maximal response (EC50) is above 30000 nM.
The same measure, in the same setting: next, `COc1ccc(-c2noc(CCCC(=O)N3CCN(c4cc(C)ccc4C)CC3)n2)cc1` [KUC103353N]: 3790 nM; `Cc1ccc(C)c(N2CCN(C(=O)CCc3nc(-c4ccc(F)cc4)no3)CC2)c1` [KUC103364N]: 1270 nM; `Cc1ccc(C)c(N2CCN(C(=O)CCc3nc(-c4cccc(F)c4)no3)CC2)c1` [KUC103366N]: 1480 nM.
Still for that read-out and setting: next, `Cc1ccc(C)c(N2CCN(C(=O)CCc3nc(-c4cccc(Br)c4)no3)CC2)c1` [KUC103367N]: 1670 nM; `COc1ccc(-c2noc(CCC(=O)N3CCN(c4ccccc4Br)CC3)n2)cc1` [KUC103370N]: 1700 nM; `Cc1ccc(C)c(N2CCN(C(=O)CCc3nc(-c4cccc(C(F)(F)F)c4)no3)CC2)c1` [KUC103380N]: 2500 nM.
In turn, `COc1ccc(-c2noc(CCC(=O)N3CCN(c4ccc(F)cc4)CC3)n2)cc1` [KUC103398N] showed an EC50 under setting [1] of 1590 nM.
Compound `Cc1ccc(C)c(N2CCN(C(=O)CCc3nc(-c4ccccc4F)no3)CC2)c1` [KUC103401N] displayed an EC50 of 1820 nM.
In turn, `Cc1ccc(C)c(N2CCN(C(=O)CCc3nc(-c4ccc(N(C)C)cc4)no3)CC2)c1` [KUC103409N] yielded an EC50 of 2770 nM. This EC50 is about 1.5-fold higher than that of the compound before.
`COc1ccc(-c2noc(CCC(=O)N3CCC(c4cc(C)ccc4C)CC3)n2)cc1` [KUC103432N]: the EC50 is 1220 nM.
The same measure, in the same setting: next, `COc1ccc(-c2ccc(CCC(=O)N3CCN(c4cc(C)ccc4C)CC3)o2)cc1` [KUC103447N]: above 30000 nM.
Under setting [1], `Cc1ccc(C)c(N2CCN(C(=O)CCc3nc(-c4ccccc4)no3)CC2)c1` [UNM-0000306070] came in with an EC50 of 1640 nM.
Still for that read-out and setting: for `COc1ccccc1-c1noc(CCC(=O)N2CCN(c3cc(C)ccc3C)CC2)n1` [UNM-0000306071] the value was 15100 nM.
`Cc1ccc(C)c(N2CCN(C(=O)CCc3nc(-c4ccc(Br)cc4)no3)CC2)c1` [UNM-0000306072] yielded an EC50 of 2970 nM.
On the same count and under the same terms, next, `COc1ccc(-c2noc(CCC(=O)N3CCN(c4ccccc4C(F)(F)F)CC3)n2)cc1` [UNM-0000306082]: 1690 nM.
Still for that read-out and setting: for `Cc1ccc(C)c(N2CCN(C(=O)CCc3nc(-c4ccc(Cl)cc4)no3)CC2)c1` [UNM-0000306083] the value was 1830 nM; for `Cc1ccc(C)c(N2CCN(C(=O)CCc3nc(-c4cccc(Cl)c4)no3)CC2)c1` [UNM-0000306086], 4970 nM.
Still for that read-out and setting: for `COc1ccc(-c2noc(CCC(=O)N3CCN(c4ccc(Cl)cc4)CC3)n2)cc1` [UNM-0000306121] the value was above 30000 nM; for `COc1ccc(-c2noc(CCC(=O)N3CCN(c4cccc(C)c4)CC3)n2)cc1` [UNM-0000306125], above 30000 nM.
In turn, `COc1ccc(-c2cccc(CCC(=O)N3CCN(c4cc(C)ccc4C)CC3)c2)cc1` [UNM-0000306127] displayed an EC50 above 30000 nM.
The compound `COc1ccc(-c2cc(CCC(=O)N3CCN(c4cc(C)ccc4C)CC3)[nH]n2)cc1` [UNM-0000306150] came in with an EC50 above 30000 nM.

A word on the EC50: it is the concentration needed to bring the measured effect to its halfway point.

These data come from BindingDB's records for doi:10.7270/Q2PK0DK8 (Nmmlsc, 2009).
